Assay [1] is described as follows: DRUGMATRIX: Potassium Channel [KATP] radioligand binding (ligand: [3H] Glyburide). The following applies: hit-t15; Not Active = under 50% inhibition at 10 µM. The class given is cell membranes, Membrane.
The target of assay [2] is T1, Amine oxidase [flavin-containing] A (Homo sapiens, UniProt P21397).
T1 sequence (P21397 whole entry): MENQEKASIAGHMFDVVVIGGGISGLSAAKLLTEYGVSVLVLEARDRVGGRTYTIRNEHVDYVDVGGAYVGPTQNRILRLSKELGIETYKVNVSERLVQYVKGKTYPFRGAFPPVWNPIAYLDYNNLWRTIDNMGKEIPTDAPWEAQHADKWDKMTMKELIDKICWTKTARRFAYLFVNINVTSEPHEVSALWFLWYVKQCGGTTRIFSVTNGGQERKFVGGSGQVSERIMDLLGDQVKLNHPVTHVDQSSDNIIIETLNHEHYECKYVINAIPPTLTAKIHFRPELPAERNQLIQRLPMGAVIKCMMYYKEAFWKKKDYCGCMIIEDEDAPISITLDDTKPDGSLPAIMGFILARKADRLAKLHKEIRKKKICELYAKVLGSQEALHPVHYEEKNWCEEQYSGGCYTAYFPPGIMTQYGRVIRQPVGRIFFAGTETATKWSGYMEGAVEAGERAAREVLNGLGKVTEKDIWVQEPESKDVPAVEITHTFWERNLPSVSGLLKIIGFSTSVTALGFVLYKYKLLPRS
The assay can be described thus: DRUGMATRIX: Monoamine Oxidase MAO-A enzyme inhibition (substrate: Kynuramine). To be noted: bti-tn-5b1-4; Not Active = under 50% inhibition at 10 µM. More on the design: species or system BTI-TN-5B1-4.

Assay [3] is described as follows: DRUGMATRIX: Calcium Channel Type L, Benzothiazepine radioligand binding (ligand: [3H] Diltiazem). Type of assay: cell membranes, Rattus norvegicus, Wistar, Brain, Membrane. To be noted: Not Active = under 50% inhibition at 10 µM.
Assay [4] deals with T2, Alpha-1A adrenergic receptor (Rattus norvegicus, UniProt P43140).
T2 sequence (P43140 whole entry): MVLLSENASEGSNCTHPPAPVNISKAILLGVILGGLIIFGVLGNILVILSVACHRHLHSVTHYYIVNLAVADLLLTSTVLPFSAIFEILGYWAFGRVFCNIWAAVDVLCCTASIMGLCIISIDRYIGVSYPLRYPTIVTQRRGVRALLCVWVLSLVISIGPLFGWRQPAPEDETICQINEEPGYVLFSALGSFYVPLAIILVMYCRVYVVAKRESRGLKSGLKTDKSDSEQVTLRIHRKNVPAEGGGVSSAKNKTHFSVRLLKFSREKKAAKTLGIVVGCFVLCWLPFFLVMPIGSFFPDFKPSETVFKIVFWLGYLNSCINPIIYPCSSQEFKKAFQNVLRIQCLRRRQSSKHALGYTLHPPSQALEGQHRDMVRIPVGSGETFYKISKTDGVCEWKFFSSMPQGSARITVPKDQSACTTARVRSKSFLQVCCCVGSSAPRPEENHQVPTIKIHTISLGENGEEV
The assay can be described thus: DRUGMATRIX: Alpha-1A adrenergic receptor radioligand binding (ligand: prazosin). The class given is cell membranes, Wistar, Submaxillary gland, Membrane. The following applies: Not Active = under 50% inhibition at 10 µM.

In assay [5] the target is T3, Adenosine receptor A1 (Homo sapiens, UniProt P30542).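 Also: radioligand binding assay at the adenosine A1 receptor, with DPCPX serving as the labelled ligand; in other assays of this panel Not Active means under 50% inhibition at 10 µM.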
T3 sequence (P30542 whole entry): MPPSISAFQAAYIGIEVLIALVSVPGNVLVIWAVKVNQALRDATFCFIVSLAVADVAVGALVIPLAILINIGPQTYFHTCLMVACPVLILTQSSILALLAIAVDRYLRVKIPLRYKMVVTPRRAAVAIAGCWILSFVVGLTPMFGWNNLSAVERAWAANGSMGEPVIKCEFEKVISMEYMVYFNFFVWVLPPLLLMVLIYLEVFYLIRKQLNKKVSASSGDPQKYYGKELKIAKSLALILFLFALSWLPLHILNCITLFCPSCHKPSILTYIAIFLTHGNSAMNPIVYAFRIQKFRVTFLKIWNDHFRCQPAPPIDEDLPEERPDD
Type of assay: cell membranes, Membrane. To be noted: cho.

In assay [6] the target is Matrix metalloproteinase-9 (Homo sapiens, UniProt P14780). The experiment in a line: biochemical. Type of assay: cell-based.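 Also: inhibition of isolated MMP-9 enzyme activity toward a synthetic peptide substrate, from the DrugMatrix protease screening panel; in other assays of this panel Not Active means under 50% inhibition at 10 µM.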
The nature of assay [7]: DRUGMATRIX: Glutamate, AMPA radioligand binding (ligand: [3H] AMPA). The following applies: Not Active = under 50% inhibition at 10 µM. The class given is cell membranes, Rattus norvegicus, Wistar, Cerebral cortex, Membrane.

Sequence of Matrix metalloproteinase-9 (P14780 whole entry): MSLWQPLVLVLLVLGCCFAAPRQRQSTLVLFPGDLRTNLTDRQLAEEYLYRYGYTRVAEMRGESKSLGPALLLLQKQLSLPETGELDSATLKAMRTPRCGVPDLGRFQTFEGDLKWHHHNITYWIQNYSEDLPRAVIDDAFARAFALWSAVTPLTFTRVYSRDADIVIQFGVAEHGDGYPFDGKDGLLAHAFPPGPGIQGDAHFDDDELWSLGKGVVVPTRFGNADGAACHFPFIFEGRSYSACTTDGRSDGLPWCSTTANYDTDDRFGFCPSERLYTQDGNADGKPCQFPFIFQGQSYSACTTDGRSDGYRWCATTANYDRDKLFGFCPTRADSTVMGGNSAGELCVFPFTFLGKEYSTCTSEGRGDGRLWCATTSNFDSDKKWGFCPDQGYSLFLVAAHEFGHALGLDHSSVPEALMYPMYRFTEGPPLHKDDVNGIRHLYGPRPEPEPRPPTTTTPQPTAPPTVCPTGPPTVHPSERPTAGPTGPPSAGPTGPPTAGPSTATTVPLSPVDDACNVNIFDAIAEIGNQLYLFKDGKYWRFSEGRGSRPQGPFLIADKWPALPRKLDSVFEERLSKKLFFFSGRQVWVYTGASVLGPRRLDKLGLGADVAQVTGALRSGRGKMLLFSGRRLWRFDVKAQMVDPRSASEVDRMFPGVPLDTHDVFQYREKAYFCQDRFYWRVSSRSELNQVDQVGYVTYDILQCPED

As for `CN(C)/N=N/c1[nH]cnc1C(N)=O` [DACARBAZINE], the IC50 (as a rule, the point on the concentration scale where inhibition reaches its midpoint) in assay [1] is “Not Active”; in assay [2] it was “Not Active”; in assay [3], “Not Active”; in assay [4], “Not Active”; in assay [5] it was “Not Active”; in assay [6] (read-out: IC50), 556 nM. The IC50 result in assay [7] is “Not Active”. Also, the Ki entry in assay [1], in assay [3] and in assay [7] was “Not Active” in each case.
Turning to `COc1ccc2c(c1)[C@]13CCCC[C@@H]1[C@H](C2)N(C)CC3` [DEXTROMETHORPHAN], the concentration for half-maximal inhibition (IC50) entry in assay [1], in assay [2], in assay [3], in assay [4], in assay [5] and in assay [6] was “Not Active” in each case. For the same compound, the IC50 result in assay [7] was “Not Active”. Further, the Ki result in assay [1], in assay [3] and in assay [7] was “Not Active” each time.
Regarding `CC(=O)Nc1c(I)c(NC(C)=O)c(I)c(C(=O)O)c1I` [DIATRIZOIC ACID], the half-inhibitory concentration (IC50) result in assay [1], in assay [2], in assay [3], in assay [4], in assay [5] and in assay [6] was “Not Active” each time. Moreover, the IC50 result in assay [7] is given as “Not Active”. The Ki entry in assay [1], in assay [3] and in assay [7] was “Not Active” each time.
In the case of `COP(=O)(OC)OC=C(Cl)Cl` [DICHLORVOS], the half-maximal inhibitory concentration (IC50) result in assay [1], in assay [2], in assay [3], in assay [4], in assay [5] and in assay [6] was “Not Active” in each case. Moreover, the IC50 entry in assay [7] is recorded as “Not Active”. Further, the Ki entry in assay [1], in assay [3] and in assay [7] was “Not Active” each time.
Take `O=C(O)Cc1ccccc1Nc1c(Cl)cccc1Cl` [DICLOFENAC]: the IC50 result in assay [1], in assay [2], in assay [3], in assay [4], in assay [5] and in assay [6] was “Not Active” each time. In assay [7], the IC50 entry is “Not Active”. Also, the Ki entry in assay [1], in assay [3] and in assay [7] was “Not Active” in each case.
Regarding `C[C@H]1O[C@@H](O[C@H]2[C@@H](O)C[C@H](O[C@H]3[C@@H](O)C[C@H](O[C@H]4CC[C@@]5(C)[C@H](CC[C@@H]6[C@@H]5CC[C@]5(C)[C@@H](C7=CC(=O)OC7)CC[C@]65O)C4)O[C@@H]3C)O[C@@H]2C)C[C@H](O)[C@@H]1O` [DIGITOXIN], the IC50 entry in assay [1], in assay [2], in assay [3], in assay [4], in assay [5] and in assay [6] was “Not Active” in each case. In assay [7], the IC50 result is reported as “Not Active”. Besides, the Ki entry in assay [1], in assay [3] and in assay [7] was “Not Active” throughout.
`CCN1CC(CCN2CCOCC2)C(c2ccccc2)(c2ccccc2)C1=O` (stereo not given) [DOXAPRAM]: the IC50 entry in assay [1], in assay [2], in assay [3], in assay [4], in assay [5] and in assay [6] was “Not Active” throughout. Besides, in assay [7], the IC50 entry is “Not Active”. For the same compound, the Ki entry in assay [1], in assay [3] and in assay [7] was “Not Active” in each case.
For the compound `Cn1c(=O)c2c(ncn2CC2OCCO2)n(C)c1=O` [DOXOFYLLINE], the IC50 entry in assay [1], in assay [2], in assay [3], in assay [4], in assay [5] and in assay [6] was “Not Active” each time. Also, the IC50 result in assay [7] was “Not Active”. Moreover, the Ki result in assay [1], in assay [3] and in assay [7] was “Not Active” each time.
With `COc1cccc2c1C(=O)c1c(O)c3c(c(O)c1C2=O)C[C@@](O)(C(=O)CO)C[C@@H]3O[C@H]1C[C@H](N)[C@H](O)[C@H](C)O1` [DOXORUBICIN], the IC50 result in assay [1], in assay [2], in assay [3], in assay [4], in assay [5] and in assay [6] was “Not Active” throughout. The IC50 entry in assay [7] is recorded as “Not Active”. Further, the Ki entry in assay [1], in assay [3] and in assay [7] was “Not Active” each time.
For the compound `COc1cccc2c1C(=O)c1c(O)c3c(c(O)c1C2=O)C[C@@](O)(C(=O)CO)C[C@@H]3O[C@H]1C[C@H](N)[C@@H](O)[C@H](C)O1` [EPIRUBICIN], the IC50 entry in assay [1], in assay [2], in assay [3], in assay [4], in assay [5] and in assay [6] was “Not Active” throughout. In assay [7], the IC50 entry is “Not Active”. The Ki result in assay [1], in assay [3] and in assay [7] was “Not Active” each time.
Take `C[C@]12CC[C@@H]3c4ccc(OC(=O)c5ccccc5)cc4CC[C@H]3[C@@H]1CC[C@@H]2O` [ESTRADIOL BENZOATE]: the IC50 entry in assay [1], in assay [2], in assay [3], in assay [4], in assay [5] and in assay [6] was “Not Active” throughout. In addition, the IC50 entry in assay [7] was “Not Active”. Further, the Ki entry in assay [1], in assay [3] and in assay [7] was “Not Active” throughout.
In the case of `C[C@]12CC[C@@H]3c4ccc(O)cc4CC[C@H]3[C@@H]1CC[C@@H]2O` [ESTRADIOL], the IC50 entry in assay [1], in assay [2], in assay [3], in assay [4], in assay [5] and in assay [6] was “Not Active” in each case. For the same compound, the IC50 result in assay [7] is on record as “Not Active”. Further, the Ki entry in assay [1], in assay [3] and in assay [7] was “Not Active” in each case.
Consider `CC[C@@H](CO)NCCN[C@@H](CC)CO` [ETHAMBUTOL], for which the IC50 result in assay [1], in assay [2], in assay [3], in assay [4], in assay [5] and in assay [6] was “Not Active” throughout. Besides, in assay [7], the IC50 entry is reported as “Not Active”. Moreover, the Ki result in assay [1], in assay [3] and in assay [7] was “Not Active” in each case.
On to `CC1(C)O[C@@H]2C[C@H]3[C@@H]4C[C@H](F)C5=CC(=O)C=C[C@]5(C)[C@H]4[C@@H](O)C[C@]3(C)[C@]2(C(=O)CO)O1` [FLUNISOLIDE], for which the IC50 result in assay [1], in assay [2], in assay [3], in assay [4], in assay [5] and in assay [6] was “Not Active” throughout. In addition, the IC50 entry in assay [7] was “Not Active”. The Ki entry in assay [1], in assay [3] and in assay [7] was “Not Active” in each case.
Regarding `CC1(C)O[C@@H]2C[C@H]3[C@@H]4C[C@H](F)C5=CC(=O)C=C[C@]5(C)[C@@]4(F)[C@@H](O)C[C@]3(C)[C@]2(C(=O)CO)O1` [FLUOCINOLONE ACETONIDE], the 50% inhibitory concentration (IC50) result in assay [1], in assay [2], in assay [3], in assay [4], in assay [5] and in assay [6] was “Not Active” each time. For the same compound, the IC50 entry in assay [7] is recorded as “Not Active”. Besides, the Ki result in assay [1], in assay [3] and in assay [7] was “Not Active” each time.

These data come from ChEMBL document CHEMBL1909046, “DrugMatrix in vitro pharmacology data”.
